Values after ≈ are worked out from the molar mass of the structure shown.
Assays:
Format in all cases: in vivo
[1] = system: redroot pigweed (Amaranthus retroflexus); experiment: Pre-emergence application, herbicidal effect on redroot pigweed (Table 1); parameters: key: 0: not damaged; 5: completely killed; details: 20 days after application, score 0-5
Method in brief: (§1)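 Pre-emergence soil treatment: seeds sown in pots of about 10 cm and covered with soil, then compounds applied as wettable powder diluted in water. Plants grown in a greenhouse; damage scored 20 days after application from 0 (not damaged) to 5 (completely killed).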

[2] = system: large crabgrass (Digitaria sanguinalis); experiment: Pre-emergence application, herbicidal effect on large crabgrass (Table 1); parameters: key: 0: not damaged; 5: completely killed; details: 20 days after application, score 0-5
Method in brief: as §1

[3] = system: common lambsquarter (Chenopodium album); experiment: Pre-emergence application, herbicidal effect on common lambsquarter (Table 1); parameters: key: 0: not damaged; 5: completely killed; details: 20 days after application, score 0-5
Method in brief: as §1

[4] = system: barnyard grass (Echinochloa crus-galli); experiment: Water application, herbicidal effect on barnyard grass (Table 2); parameters: key: 0: not damaged; 5: completely killed; details: 25 days, score 0-5
Method in brief: (§2)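 Flooded paddy-soil pots with 3-leaf-stage transplanted rice and sown barnyard grass; wettable-powder compounds applied to soil under water. Herbicidal effect and rice phytotoxicity, also on spontaneously germinated broad-leaved weeds, scored 0–5 at 25 days after application.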

[5] = system: tobacco cut worm (Spodoptera litura); experiment: Field test, tobacco cut worm on cabbage (Table 8); details: 3% dust, 5 kg./10 a., after 7 days, on 20 cabbages
Source text: (§3) A 3% dust of each compound of the present invention was applied, in a proportion of 5 kg./10 a., to the field of cabbage where a large number of tobacco cut worm and diamond-back moth were generated, After 7 days, 20 cabbages were pulled out and the number of insects thereon were checked.

nematode = experiment: Effect on nematode (Table 7); parameters: tested at 500 ppm; details: 500 p.p.m., 24 hours
Experimental: 0.5 ml. of a nematode-containing aqueous solution separated from food according to Baermann's method was placed in a test tube with ground stopper containing 0.5 ml. of an aqueous dilute solution of each emulsifiable concentrates of the present compounds. The concentration of the active ingredient in the mixture was adjusted to 500 p.p.m. After 24 hours, the death and alive were observed microscopically to calculate the mortality.

[6] = system: tobacco cut worm (Spondoptera litura); experiment: Lethal effect on tobacco cut worm (Table 5); details: tobacco cutworm, larvae on chinese cabbage leaves, 48 h
Experimental: The present compounds of an emulsifiable concentrate type were applied to leaves of chinese cabbage in the form of an 1000 fold dilute solution. After air-drying, third to fourth instar larvae of tobacco cut worm were released and after 48 hours the death and alive were observed.

[7] = system: common purslane (Portulaca oleracea); experiment: Pre-emergence application, herbicidal effect on common purslane (Table 1); parameters: key: 0: not damaged; 5: completely killed; details: 20 days after application, score 0-5
Method in brief: as §1

radish = experiment: Pre-emergence application, herbicidal effect on radish (Table 1); parameters: key: 0: not damaged; 5: completely killed; details: 20 days after application, score 0-5
Method in brief: as §1

[8] = system: broad-leaved weeds, e.g., monochoria, false pimpernel and toothcup; experiment: Water application, herbicidal effect on broad-leaved weeds (Table 2); parameters: key: 0: not damaged; 5: completely killed; details: 25 days, score 0-5
Method in brief: as §2

[9] = system: diamond-back moth (Plutella maculipennis); experiment: Field test, diamond-back moth on cabbage (Table 8); details: 3% dust, 5 kg./10 a., after 7 days, on 20 cabbages
Source text: as §3

[10] = system: carmine mite (Tetranychus telavius); experiment: Lethal effect on carmine mite, leaf dipping (Table 3); details: foliar, 48 h
Experimental: A large number of carmine mite adult were made parasitic on leaves of potted kidney beans at a 2-leaves stage which had elapsed 10 days after sowing. The leaves of kidney bean on which carmine mites had been made parasitic were dipped for 1 minute in each aqueous solution of the present compounds of wettable powder type. Water was given to the leaves not to kill them, and after 48 hours the death and alive were observed microscopically to calculate the mortality. Values of LC50 were obtained from the mortality.

rice = experiment: Water application, phytotoxicity on rice (Table 2); parameters: key: 0: no effect; 1: very slightly affected; 2: slightly affected; 3: moderately affected; 4: considerably affected; 5: completely killed; details: 25 days, score 0-5
Method in brief: as §2

[11] = system: barnyard grass (Echinochloa crus-galli); experiment: Pre-emergence application, herbicidal effect on barnyard grass (Table 1); parameters: key: 0: not damaged; 5: completely killed; details: 20 days after application, score 0-5
Method in brief: as §1

[12] = system: carmine mite (Tetranychus telarius); experiment: Lethal effect on carmine mite, degree of damage on kidney beans (Table 4); parameters: key: -: damage is hardly increased.; +: damage is slightly increased.; ++: damage is fairly increased.; +++: damage is heavily increased; details: 25% wettable powder, 200 fold dilute solution, another week after application
Source text: About 50 carmine mite adults were made parasitic on leaves of potted kidney beans at a 2-leaves stage which had elapsed 10 days after swing. After a week, the present compounds of a 25% wettable powder type were each applied in the form of a 200 fold dilute solution.

Structure (SMILES): CCCSP(=O)(OCC)SCC(=O)N1CCCCC1C (stereo not shown) [Compound 2, O-ethyl-S-n-propyl-S(2-methylpiperidinocarbomoylmethyl)phosphorodithiolate]
- Herbicidal effect, redroot pigweed ([1]; 10 g./a.): 5
- Herbicidal effect, redroot pigweed ([1]; 20 g./a.): 5
- Herbicidal effect, redroot pigweed ([1]; 40 g./a.): 5
- Herbicidal effect, large crabgrass ([2]; 10 g./a.): 5
- Herbicidal effect, large crabgrass ([2]; 20 g./a.): 5
- Herbicidal effect, large crabgrass ([2]; 40 g./a.): 5
- Herbicidal effect, common lambsquarter ([3]; 10 g./a.): 5
- Herbicidal effect, common lambsquarter ([3]; 20 g./a.): 5
- Herbicidal effect, common lambsquarter ([3]; 40 g./a.): 5
- Herbicidal effects, barnyard grass ([4]; 10 g/a): 5
- Herbicidal effects, barnyard grass ([4]; 20 g/a): 5
- Herbicidal effects, barnyard grass ([4]; 40 g/a): 5
- Number of insects, tobacco cut worm [5]: 0
- Mortality (nematode): 100%
- Mortality [6]: 100%
- Herbicidal effect, common purslane ([7]; 10 g./a.): 5
- Herbicidal effect, common purslane ([7]; 20 g./a.): 5
- Herbicidal effect, common purslane ([7]; 40 g./a.): 5
- Herbicidal effect, radish (radish; 10 g./a.): 0
- Herbicidal effect, radish (radish; 20 g./a.): 0
- Herbicidal effect, radish (radish; 40 g./a.): 1
- Herbicidal effects, broad-leaved weeds ([8]; 10 g/a): 5
- Herbicidal effects, broad-leaved weeds ([8]; 20 g/a): 5
- Herbicidal effects, broad-leaved weeds ([8]; 40 g/a): 5
- Number of insects, diamond-back moth [9]: 8
- LC50 [10]: 4.6 µg/mL (≈ 13.6 µM)
- Phytotoxicity on rice (rice; 10 g/a): 0
- Phytotoxicity on rice (rice; 20 g/a): 1
- Phytotoxicity on rice (rice; 40 g/a): 1
- Herbicidal effect, barnyard grass ([11]; 10 g./a.): 5
- Herbicidal effect, barnyard grass ([11]; 20 g./a.): 5
- Herbicidal effect, barnyard grass ([11]; 40 g./a.): 5

Structure (SMILES): CCOP(=O)(SCC(=O)N1CCCCC1C)SCc1ccc(Cl)c(Cl)c1 (stereo not shown) [Compound 61]
- Degree of damage [12]: -

Structure (SMILES): CCOP(=O)(SCC(=O)N1CCCCC1C)SC(C)C (stereo not shown) [Compound 3]
- Herbicidal effect, redroot pigweed ([1]; 10 g./a.): 4
- Herbicidal effect, redroot pigweed ([1]; 20 g./a.): 5
- Herbicidal effect, redroot pigweed ([1]; 40 g./a.): 5
- Herbicidal effect, large crabgrass ([2]; 10 g./a.): 5
- Herbicidal effect, large crabgrass ([2]; 20 g./a.): 5
- Herbicidal effect, large crabgrass ([2]; 40 g./a.): 5
- Herbicidal effect, common lambsquarter ([3]; 10 g./a.): 5
- Herbicidal effect, common lambsquarter ([3]; 20 g./a.): 5
- Herbicidal effect, common lambsquarter ([3]; 40 g./a.): 5
- Herbicidal effects, barnyard grass ([4]; 10 g/a): 5
- Herbicidal effects, barnyard grass ([4]; 20 g/a): 5
- Herbicidal effects, barnyard grass ([4]; 40 g/a): 5
- Number of insects, tobacco cut worm [5]: 1
- Mortality (nematode): 100%
- Mortality [6]: 83.3%
- Herbicidal effect, common purslane ([7]; 10 g./a.): 5
- Herbicidal effect, common purslane ([7]; 20 g./a.): 5
- Herbicidal effect, common purslane ([7]; 40 g./a.): 5
- Herbicidal effect, radish (radish; 10 g./a.): 0
- Herbicidal effect, radish (radish; 20 g./a.): 0
- Herbicidal effect, radish (radish; 40 g./a.): 0
- Herbicidal effects, broad-leaved weeds ([8]; 10 g/a): 5
- Herbicidal effects, broad-leaved weeds ([8]; 20 g/a): 5
- Herbicidal effects, broad-leaved weeds ([8]; 40 g/a): 5
- Number of insects, diamond-back moth [9]: 12
- LC50 [10]: 18.5 µg/mL (≈ 54.5 µM)
- Phytotoxicity on rice (rice; 10 g/a): 0
- Phytotoxicity on rice (rice; 20 g/a): 0
- Phytotoxicity on rice (rice; 40 g/a): 0
- Herbicidal effect, barnyard grass ([11]; 10 g./a.): 5
- Herbicidal effect, barnyard grass ([11]; 20 g./a.): 5
- Herbicidal effect, barnyard grass ([11]; 40 g./a.): 5

Structure (SMILES): CCOP(=O)(SCC(=O)N1CCCCC1C)SCc1ccc(CC)cc1 (stereo not shown) [Compound 53]
- Herbicidal effect, redroot pigweed ([1]; 10 g./a.): 3
- Herbicidal effect, redroot pigweed ([1]; 20 g./a.): 4
- Herbicidal effect, redroot pigweed ([1]; 40 g./a.): 5
- Herbicidal effect, large crabgrass ([2]; 10 g./a.): 5
- Herbicidal effect, large crabgrass ([2]; 20 g./a.): 5
- Herbicidal effect, large crabgrass ([2]; 40 g./a.): 5
- Herbicidal effect, common lambsquarter ([3]; 10 g./a.): 3
- Herbicidal effect, common lambsquarter ([3]; 20 g./a.): 3
- Herbicidal effect, common lambsquarter ([3]; 40 g./a.): 4
- Herbicidal effects, barnyard grass ([4]; 10 g/a): 5
- Herbicidal effects, barnyard grass ([4]; 20 g/a): 5
- Herbicidal effects, barnyard grass ([4]; 40 g/a): 5
- Degree of damage [12]: -~+
- Mortality (nematode): 83.6%
- Herbicidal effect, common purslane ([7]; 10 g./a.): 3
- Herbicidal effect, common purslane ([7]; 20 g./a.): 3
- Herbicidal effect, common purslane ([7]; 40 g./a.): 5
- Herbicidal effect, radish (radish; 10 g./a.): 0
- Herbicidal effect, radish (radish; 20 g./a.): 0
- Herbicidal effect, radish (radish; 40 g./a.): 0
- Herbicidal effects, broad-leaved weeds ([8]; 10 g/a): 5
- Herbicidal effects, broad-leaved weeds ([8]; 20 g/a): 5
- Herbicidal effects, broad-leaved weeds ([8]; 40 g/a): 5
- Phytotoxicity on rice (rice; 10 g/a): 0
- Phytotoxicity on rice (rice; 20 g/a): 0
- Phytotoxicity on rice (rice; 40 g/a): 0
- Herbicidal effect, barnyard grass ([11]; 10 g./a.): 4
- Herbicidal effect, barnyard grass ([11]; 20 g./a.): 5
- Herbicidal effect, barnyard grass ([11]; 40 g./a.): 5
